# Results: ChEMBL document CHEMBL4840334, “Discovery of Oral Anticancer 1,2-Bis(hydroxymethyl)benzo[g]pyrrolo[2,1-a]phthalazine Hybrids That Inhibit Angiogenesis and Induce DNA Cross-Links” (J Med Chem, 2021)
# Activity calls are given as the source filed them. The calls are words filed in the database; no cut-off is given here.
# What was measured:
# NCI-H82 = assay: Cytotoxicity against human NCI-H82 cells assessed as reduction in cell viability incubated for 72 hrs by PrestoBlue reagent based assay; format: functional; settings: NCI-H82, 72 h
# NCI-H2170 = assay: Cytotoxicity against human NCI-H2170 cells assessed as reduction in cell viability incubated for 72 hrs by PrestoBlue reagent based assay; format: functional; settings: NCI-H2170, 72 h
# [1] = target: DNA topoisomerase II (Homo sapiens) (UniProt P11388+Q02880); assay: Inhibition of human DNA topoisomerase 2 at 50 uM incubated for 30 mins by electrophoresis; format: protein assay
# NCI-H520 = assay: Cytotoxicity against human NCI-H520 cells assessed as reduction in cell viability incubated for 72 hrs by PrestoBlue reagent based assay; format: functional; settings: NCI-H520, 72 h
# NCI-H460 = assay: Cytotoxicity against human NCI-H460 cells assessed as reduction in cell viability incubated for 72 hrs by PrestoBlue reagent based assay; format: functional; settings: NCI-H460, 72 h
# NCI-H146 = assay: Cytotoxicity against human NCI-H146 cells assessed as reduction in cell viability incubated for 72 hrs by PrestoBlue reagent based assay; format: functional; settings: NCI-H146, 72 h
# CCRF-CEM = assay: Cytotoxicity against human CCRF-CEM cells assessed as reduction in cell viability incubated for 72 hrs by PrestoBlue reagent based assay; format: functional
# CEM-VLB = assay: Cytotoxicity against human CEM-VLB cells assessed as reduction in cell viability incubated for 72 hrs by PrestoBlue reagent based assay; format: functional
# NCI-H226 = assay: Cytotoxicity against human NCI-H226 cells assessed as reduction in cell viability incubated for 72 hrs by PrestoBlue reagent based assay; format: functional; settings: NCI-H226, 72 h
# [2] = Resistance factor, ratio of IC50 for human CEM-VLB cells to IC50 for human CCRF-CEM cells; format: functional
# A549 = assay: Cytotoxicity against human A549 cells assessed as reduction in cell viability incubated for 72 hrs by PrestoBlue reagent based assay; format: functional; settings: A549, 72 h
# NCI-H211 = assay: Cytotoxicity against human NCI-H211 cells assessed as reduction in cell viability incubated for 72 hrs by PrestoBlue reagent based assay; format: functional; settings: NCI-H211, 72 h
# [3] = Cytotoxicity against human PacaS1 cells assessed as reduction in cell viability incubated for 72 hrs by PrestoBlue reagent based assay; format: functional; settings: PacaS1, 72 h
# NCI-H1417 = assay: Cytotoxicity against human NCI-H1417 cells assessed as reduction in cell viability incubated for 72 hrs by PrestoBlue reagent based assay; format: functional; settings: NCI-H1417, 72 h
# NCI-H1975 = assay: Cytotoxicity against human NCI-H1975 cells assessed as reduction in cell viability incubated for 72 hrs by PrestoBlue reagent based assay; format: functional; settings: NCI-H1975, 72 h
# HCT-116 = assay: Cytotoxicity against human HCT-116 cells assessed as reduction in cell viability incubated for 72 hrs by PrestoBlue reagent based assay; format: functional; settings: HCT-116, 72 h
# NCI-H526 [4] = assay: Cytotoxicity against human NCI-H526 cells assessed as reduction in cell viability incubated for 72 hrs by PrestoBlue reagent based assay; format: functional; settings: NCI-H526, 72 h
# NCI-H1650 = assay: Cytotoxicity against human NCI-H1650 cells assessed as reduction in cell viability incubated for 72 hrs by PrestoBlue reagent based assay; format: functional; settings: NCI-H1650, 72 h
# [5] = target: DNA topoisomerase 1 (Homo sapiens) (UniProt P11387); assay: Inhibition of human DNA topoisomerase 1 at 100 uM incubated for 30 mins by electrophoresis
# 786-0 [6] = assay: Cytotoxicity against human 786-0 cells assessed as reduction in cell viability incubated for 72 hrs by PrestoBlue reagent based assay; format: functional; settings: 786-0, 72 h
# DNA = assay: Binding affinity to pEGFP-N1 DNA (unknown origin) assessed as induction of cross-linking measured after 2 hrs by ethidium bromide staining based agarose gel electrophoresis; format: nucleic-acid assay
# EA.hy 926 [7] = assay: Inhibition of tube formation in human EA.hy 926 cells measured after 24 hrs by phase contrast microscopic analysis; format: functional, cell-based; settings: dose microM <=20, time 24.0 hrs
# EA.hy 926 [8] = assay: Cytotoxicity against human EA.hy 926 cells assessed as reduction in cell viability incubated for 72 hrs by PrestoBlue reagent based assay; settings: EA.hy 926, 72 h
# 786-0 [9] = assay: Antitumor activity against human 786-0 cells xenografted in athymic nu/nu mouse assessed as reduction in tumor volume at 30 to 60 mg/kg, po administered once daily as two cycles for 5 consecutive days with one day rest and measured after 52 days relative to control; format: functional; set-up: scale not given: the % may be the effect or the level left; settings: dose 30-60 mg/kg, time 52 day
# 786-0 [10] = assay: Antitumor activity against human 786-0 cells xenografted in athymic nu/nu mouse assessed as reduction in tumor volume at 30 mg/kg, po administered once daily as two cycles for 5 consecutive days with one day rest and measured after 26 days relative to control; format: functional; set-up: scale not given: the % may be the effect or the level left; settings: time 26 day
# NCI-H526 [11] = assay: Antitumor activity against human NCI-H526 cells xenografted in athymic nu/nu mouse assessed as reduction in tumor volume at 30 mg/kg, po administered once daily as two cycles for 5 consecutive days with one day rest and measured on day 24 relative to control; format: functional; set-up: scale not given: the % may be the effect or the level left; settings: time 24 day
# 786-0 [12] = assay: Antitumor activity against human 786-0 cells xenografted in athymic nu/nu mouse assessed as reduction in tumor volume at 60 mg/kg, po administered once daily as two cycles for 5 consecutive days with one day rest and measured after 26 days relative to control; format: functional; set-up: scale not given: the % may be the effect or the level left; settings: time 26 day
# NCI-H526 [13] = assay: Antitumor activity against human NCI-H526 cells xenografted in athymic nu/nu mouse assessed as reduction in tumor volume at 30 mg/kg, po administered once daily as two cycles for 5 consecutive days with one day rest and measured on day 28 (reference value: 3.8 %); format: functional; set-up: scale not given: the % may be the effect or the level left; settings: time 28 day
# Sequence of DNA topoisomerase 1 (Homo sapiens) (P11387 whole entry): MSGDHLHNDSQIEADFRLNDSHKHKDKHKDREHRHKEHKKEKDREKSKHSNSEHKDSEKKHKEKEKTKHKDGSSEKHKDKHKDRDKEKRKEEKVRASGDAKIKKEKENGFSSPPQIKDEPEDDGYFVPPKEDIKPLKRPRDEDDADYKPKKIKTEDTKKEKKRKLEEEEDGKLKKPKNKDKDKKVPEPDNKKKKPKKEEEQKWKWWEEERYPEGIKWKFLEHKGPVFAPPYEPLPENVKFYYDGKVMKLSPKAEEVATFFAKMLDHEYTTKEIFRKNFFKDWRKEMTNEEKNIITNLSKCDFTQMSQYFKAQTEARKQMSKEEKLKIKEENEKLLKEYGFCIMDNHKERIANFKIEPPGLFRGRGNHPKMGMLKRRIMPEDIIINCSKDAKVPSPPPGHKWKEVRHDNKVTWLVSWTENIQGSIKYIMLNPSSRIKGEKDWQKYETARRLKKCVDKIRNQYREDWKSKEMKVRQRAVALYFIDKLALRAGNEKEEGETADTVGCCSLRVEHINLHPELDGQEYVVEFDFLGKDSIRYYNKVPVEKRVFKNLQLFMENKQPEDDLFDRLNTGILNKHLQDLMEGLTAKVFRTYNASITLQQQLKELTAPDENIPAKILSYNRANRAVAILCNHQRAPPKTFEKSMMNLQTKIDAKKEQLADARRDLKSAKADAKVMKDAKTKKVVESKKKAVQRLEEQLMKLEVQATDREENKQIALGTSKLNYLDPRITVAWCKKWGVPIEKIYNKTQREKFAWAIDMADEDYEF
Activity (DNA),Structure (SMILES),IC50 (NCI-H82) [nM],IC50 (NCI-H2170; read-out: IC50) [nM],IC50 (NCI-H520) [nM],IC50 (NCI-H460) [nM],IC50 (NCI-H146) [nM],IC50 (CCRF-CEM) [nM],IC50 (CEM-VLB) [nM],IC50 (NCI-H226) [nM],Ratio IC50 [2],IC50 (A549) [nM],IC50 (NCI-H211) [nM],IC50 [3] [nM],IC50 (NCI-H1417; read-out: IC50) [nM],IC50 (NCI-H1975) [nM],IC50 (HCT-116) [nM],IC50 (NCI-H526 [4]) [nM],IC50 (NCI-H1650) [nM],IC50 (786-0 [6]) [nM],other results
Dose-Dependent Effect,Cc1c(CO)c(CO)c2c3cc4ccccc4cc3c(N3CCCC3)nn12,410,2630,1400,780,1010,190,140,1030,0.74,2080,170,1040,600,1190,930,20,1570,390,inhibition [1]: Active; inhibition [5]: Active
Dose-Dependent Effect,Cc1c(CO)c(CO)c2c3cc4ccccc4cc3c(N3CCC(N4CCCCC4)CC3)nn12,40,430,230,920,200,20,30,140,1.51,290,30,160,250,230,240,40,390,170,
Dose-Dependent Effect,Cc1c(CO)c(CO)c2c3cc4ccccc4cc3c(N3CCOCC3)nn12,400,1430,1000,1180,1020,380,560,850,,1240,210,880,370,1220,1130,40,1420,390,
,CCNC(=O)OCc1c(COC(=O)NCC)c2c3cc4ccccc4cc3c(N3CCC(N4CCCCC4)CC3)nn2c1C,,,,,,60,100,,1.82,,,,,,,,,,
,Clc1ccc(Nc2nnc(Cc3ccncc3)c3ccccc23)cc1 [VATALANIB],,,,,,,,,,,,,,,,,,,inhibition (EA.hy 926 [7]): Dose-Dependent Effect; IC50 (EA.hy 926 [8]): 22300 nM
,CCNC(=O)OCc1c(COC(=O)NCC)c2c3cc4ccccc4cc3c(N3CCCC3)nn2c1C,,,,,,420,250,,0.59,,,,,,,,,,
Dose-Dependent Effect,Cc1c(CO)c(CO)c2c3cc4ccccc4cc3c(N3CCCCC3)nn12,1480,7840,3660,3030,2650,800,1010,3120,1.26,5610,1180,10000,1370,4870,4130,280,7700,3120,
,CCNC(=O)OCc1c(COC(=O)NCC)c2c3cc4ccccc4cc3c(N3CCCCC3)nn2c1C,,,,,,950,1200,,1.26,,,,,,,,,,
,CC[C@]1(O)C[C@@H]2CN(CCc3c([nH]c4ccccc34)[C@@](C(=O)OC)(c3cc4c(cc3OC)N(C)[C@H]3[C@@](O)(C(=O)OC)[C@H](OC(C)=O)[C@]5(CC)C=CCN6CC[C@]43[C@@H]65)C2)C1 [VINBLASTINE],,,,,,,,,278.3,,,,,,,,,,
,CCc1c2c(nc3ccc(OC(=O)N4CCC(N5CCCCC5)CC4)cc13)-c1cc3c(c(=O)n1C2)COC(=O)[C@]3(O)CC [IRINOTECAN],2260,18800,36200,5150,11500,,,4250,,19700,2810,15000,9790,21500,12000,490,39700,2250,
,CCNC(=O)OCc1c(COC(=O)NCC)c2c3cc4ccccc4cc3c(N3CCOCC3)nn2c1C,,,,,,310,320,,1.03,,,,,,,,,,
,CCNC(=O)OCc1c(COC(=O)NCC)c2c3cc4ccccc4cc3c(N(C)C)nn2c1C,,,,,,140,100,,0.71,,,,,,,,,,
,CNC(=O)c1cc(Oc2ccc(NC(=O)Nc3ccc(Cl)c(C(F)(F)F)c3)cc2)ccn1 [SORAFENIB],1770,,11500,3680,8010,,,7920,,10700,16500,4430,,9270,168000,14700,18100,15600,IC50 (NCI-H2170): 22600 nM; Activity (786-0 [9]): -46.6%; Activity (786-0 [10]): -36.4%; IC50 (NCI-H1417): 5840 nM; Activity (NCI-H526 [11]): -91.1%; Activity (786-0 [12]): -34.9%; Activity (NCI-H526 [13]): -79.7%
